Measurements as given in patent publication US9840532B2, “5′-substituted nucleoside compounds” (Eli Lilly and Company, priority 2015, dated 2017).

How the values were obtained:
[1] = test system: PRMT5-dependent alternative splicing of MDM4 in A375 melanoma cells; assay: MDM4 Exon5/6 qPCR Assay in A375 Tumor Cells; format: cell-based; conditions: Homo sapiens, A-375, 72 hr, Mean ± SEM
Protocol: Culture A375 tumor cells (ATCC), a melanoma cancer cell line, to 70%-90% confluence in T150 flasks with the growth medium (DMEM; HYCLONE™ #SH30022 with 10% FBS; GIBCO® 10082-147 or equivalent). Treat the cells with standard trypsin/EDTA treatment for 3 min and aspirate and wash with PBS to release the adherent cells from the culture flask. Seed the cells into a 96 well plate (Costar 3596) at 5000/well in growth medium (90 μL). Incubate the plate overnight at 37° C. and 5% CO2 and treat the cells with test compound at serial dilutions ([…], final DMSO addition of 0.2% yield) for 72 hr. Measure activity relative to maximum (2.0 μM of Example 2 and minimum (0.2% DMSO) controls.
On Day 5 after incubation, remove the medium from the culture plates and wash the cells twice with cold PBS (150 μL/well). Prepare Lysis Working Reagent from the TAQMAN® Gene Expression Cells-to-CT Kit (INVITROGEN™ cat. # AM1729) by dilution of DNAse 1 into Lysis Solution at 1/100. Add Lysis Working Reagent (50 μL/well) to the cell plates, mix well, and incubate at room temperature for 5 min Add kit stop solution (5 μL) to each well, mix the wells, and incubate for 2 min at room temperature. Prepare Reverse Transcriptase Master Mix in the following volume ratios; RT buffer: Nuclease-free water: RT Enzyme at 62.5:31.25:6.25. Add RT mix (48 μL/well) to each well of a 96-well NUNC™ plate (THERMO SCIENTIFIC™ #260860). Add RT mix (20 μL) and each cell lysate sample (5 μL) into a 384 PCR plate (Clear Optical Reaction Plate, cat. #4309849, APPLIED BIOSYSTEMS®) quadrant 1 and add a second addition of RT Mix and cell lysate to quadrant 3. For the RT reaction, seal the plates and then place them in a thermal cycler set at 37° C. for 60 min; 95° C. for 5 min; stop at 4° C. For qPCR, prepare MDM4 exon 5 primers (Life Technologies Hs00967240-ml) and exon 6 primers (Life Technologies Hs00967242-ml) separately in the following volume ratios of RT mix: H2O: exon probe at 10:6:1. Add Exon 5 (17 μL) to odd columns of a 384 PCR plate and add exon 6 (17 μL) to the even columns. Add cDNA (3 μL, from the RT plate) by quadrant stamping to each well of the qPCR plate containing the 17 μL exon primer solution. In this manner, perform qPCR for both exons on cDNAs from a single RT reaction on an individual cell lysate. Seal the plates, spin, and place on a real-time PCR instrument (Life Technologies ViiA7 Real-Time PCR). […]
Retrieve CT data from the real-time PCR reader and perform the following calculations, where “CPD” is the value from compound-treated samples, and “DMSO” is the minimum control sample, using an Excel template: (Exon 6 CT CPD−Exon 6 CT DMSO)−(Exon 5 CT CPD−Exon 5 CT DMSO)=ΔCT 2^(−ΔCT)=Fold Change […]

PRMT5/MEP50 complex = target: T1, PRMT5/MEP50 complex (Homo sapiens, UniProt O14744); assay: PRMT5/MEP50 SPA Assay; format: biochemical; conditions: Mean ± SEM
T1 construct: FLAG; made in house; host or cells: baculovirus/Sf9 insect cells
T1 sequence (O14744 whole entry): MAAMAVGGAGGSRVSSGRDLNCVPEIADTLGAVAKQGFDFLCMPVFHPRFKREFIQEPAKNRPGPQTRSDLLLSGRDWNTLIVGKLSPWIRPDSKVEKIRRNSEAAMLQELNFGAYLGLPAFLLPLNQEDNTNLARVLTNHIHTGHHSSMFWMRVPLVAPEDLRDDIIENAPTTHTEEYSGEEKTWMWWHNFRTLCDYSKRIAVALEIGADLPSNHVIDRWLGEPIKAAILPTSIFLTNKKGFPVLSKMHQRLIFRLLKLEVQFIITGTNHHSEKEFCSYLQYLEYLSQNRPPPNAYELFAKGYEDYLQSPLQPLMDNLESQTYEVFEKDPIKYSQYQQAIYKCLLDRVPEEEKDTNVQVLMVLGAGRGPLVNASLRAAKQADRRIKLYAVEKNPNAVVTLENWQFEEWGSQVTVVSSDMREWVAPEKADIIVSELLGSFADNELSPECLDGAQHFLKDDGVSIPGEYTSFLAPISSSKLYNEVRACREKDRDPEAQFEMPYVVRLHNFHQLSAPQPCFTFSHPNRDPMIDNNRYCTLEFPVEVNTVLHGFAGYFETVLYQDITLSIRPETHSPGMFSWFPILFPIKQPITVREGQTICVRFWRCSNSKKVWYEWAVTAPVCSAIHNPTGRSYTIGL
T1 sequence (Q9BQA1 whole entry partner): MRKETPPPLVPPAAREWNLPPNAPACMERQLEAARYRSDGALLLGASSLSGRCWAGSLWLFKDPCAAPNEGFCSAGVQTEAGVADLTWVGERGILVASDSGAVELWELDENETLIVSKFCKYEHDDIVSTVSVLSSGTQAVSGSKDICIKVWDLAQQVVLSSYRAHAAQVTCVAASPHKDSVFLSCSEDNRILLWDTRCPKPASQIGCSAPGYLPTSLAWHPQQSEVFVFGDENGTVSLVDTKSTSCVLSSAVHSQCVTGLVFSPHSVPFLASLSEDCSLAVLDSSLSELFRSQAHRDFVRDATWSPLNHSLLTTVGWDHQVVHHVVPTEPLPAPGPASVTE
Source text: The purpose of this assay is to measure the ability of a test compound to inhibit the enzyme activity of PRMT5 in vitro by inhibiting the catalytic activity of PRMT5/MEP50 complex, indicated by the transfer of radiolabeled methyl-^3H to a substrate peptide derived from the N-terminal sequence of the human histone H4.
Express the PRMT5/MEP50 enzyme complex using a baculovirus/Sf9 system and purify using anti-FLAG affinity chromatography, (essentially as described in preparations by Stephen Antonysamy, Zahid Bonday, Robert M. Campbell, Brandon Doyle, Zhanna Druzina, Tarun Gheyi, Bomie Han, Louis N. Jungheim, Yuewei Qian, Charles Rauch, Marijane Russell, J. Michael Sauder, Stephen R. Wasserman, Kenneth Weichert, Francis S. Willard, Aiping Zhang, and Spencer Emtage; Crystal structure of the human PRMT5:MEP50 complex, Proceedings of the National Academy of Sciences, 2012, Volume 109, pages 17960-17965.) Dilute purified enzyme to a working stock of 6.67 nM in assay buffer (50 mM TRIZMA® preset pH ˜8.5, 1 mM DTT, 0.005% TWEEN® 80 0.01% HSA).
Add enzyme (15 μL/well) to a 384-well assay plate (CORNING® cat. #3706). Add test compounds from a 10 mM DMSO stock solution to the plate as serial dilutions in assay buffer to achieve a final test concentrations ranging from 50.0 μM to 25 nM. Create a reaction mix containing 1 μM Histone H4 biotinylated peptide substrate, H-[…]-biotin (SEQ ID NO: 1), prepared by FastMoc chemistry with an ABI 431 peptide, and 4 μM ^3H-SAM; 15 Ci/mmol, 0.366 mCi/mL, 37 μM, PERKIN-ELMER® cat. # NET155000MC) in assay buffer. To each plate well, add 5 μL of the peptide/^3H-SAM reaction mix to yield final assay conditions of 5 nM enzyme, 1 ^3H-SAM, 250 nM peptide and 50 μM maximum test compound concentration with 0.5% DMSO, at a final volume of 20 μL. Incubate the assay for 2 hr at room temperature. Stop the reaction with the addition of guanidine HCl (5 M, 20 μL, Sigma cat. # G3272).
Suspend strepavidin YSI SPA scintillation beads (PERKIN-ELMER®, #RPNQ0012) at 1 mg/mL in pH ˜8.5 Tris buffer containing 5 M guanidine HCl. To each well, add 20 μL of this bead suspension, agitate the resulting mixtures, and incubate for 1 hr at room temperature prior to measuring their radioactivity, using a microplate liquid scintillation counter as an indication of the formation of methylated peptide product.
Generate raw data from the radioactivity measurement as counts per min (CPM). Employ an uninhibited control (DMSO) and maximum inhibited control (250 μM dehydrosinefungin, (isolated essentially as described in Berry, D. R. & Abbott, B. J. Incorporation of carbon-14-labeled compounds into sinefungin (A9145), a nucleoside antifungal antibiotic. J. Antibiot. 1978 (31) 185-191 and references cited therein)). […]

Molt 4 cells = assay: Xenograft tumor model, acute lymphoblastic leukemia (Molt 4); format: in vivo, mouse; conditions: 60 mg/kg BID for 30 days, oral gavage
Protocol: The purpose of this assay is to measure in a mouse model of cancer the reduction in tumor volume in response to test compound administration.
Grow A375 (melanoma) cells in DMEM/High glucose (HYCLONE™ cat. # SH30022) with 10% HI FBS (GIBCO® cat. #10082-147). Grow Will-2 (DLBCL) cells in RPMI 1640 with L-glutamine and 20% heat inactivated FBS. Grow Namalwa (Burkitt's lymphoma) cells (ATCC) in RPMI 1640 media supplemented with L-glutamine, 25 mM HEPES (GIBCO® 22400-089), 1 mM sodium pyruvate and 7.5% FBS. Grow Molt 4 cells in RPMI 1640 with L-glutamine, 25 mM HEPES [GIBCO 22400-089], 1 mM sodium pyruvate, and 10% FBS. Harvest cells and inject subcutaneously onto the rear flank of nude mice (A375: 5×10^6 cells/animal, mixed 1:1 with MATRIGEL®; Will-2; 1×10^7 cells/animal; Namalwa: 2×10^6 cells/animal; Molt 4: : 5×10^6 cells/animal, mixed 1:1 with MATRIGEL®). When tumors are established (approximately 200 mm^3, 7-21 days after implant), randomize animals, and group them into control and test groups. Formulate the test compound in 1% HEC/0.25% TWEEN®-80/0.05% Antifoam. Administer test compound and vehicles by oral gavage. Determine tumor response by tumor volume measurement (caliper) performed twice a week during the course of treatment and report as the percent inhibition of tumor volume versus the vehicle control group.

EOL-1 cells = assay: Combination with BCL2 inhibitor ABT-199 in AML cell lines, 7-day cell proliferation assay; format: cell-based; conditions: EOL-1, treatment duration 7 Days; single agent or combination; read-out: Absolute IC50 (cell proliferation)
Protocol: (§1) On day 1, plate GDM-1 [ATCC®, maintained throughout in GDM-1 assay medium: RPMI-1640 medium/20% heat-inactivated FBS (GIBCO®)] and EOL-1 cells [ATCC®, maintained throughout in EOL-1 assay medium: RPMI-1640 medium/10% heat-inactivated FBS (GIBCO®)] at 4000 and 10000 cells/well (100 μL/well) respectively, in a 96-well assay plate (BD FALCON® 35-3219). Incubate the plates in a 37° C. incubator (5% CO2) for 18-24 hr. On day 2, prepare 2.0% DMSO with assay medium (as indicated above or RPMI-1640/20% heat-inactivated FBS and RPMI-1640/10% FBS for GDM-1 and EOL-1, respectively) and add 100 μL to columns 3-12 in a preparation plate. Prepare test compounds ABT-199 at 10 μM in 2% DMSO and PRMT5 inhibitor Example 1 at 25 μM in 2% DMSO and dispense into wells A2 and B2, respectively, followed by serial dilution (1:3, 10 points) to wells A11 and B11, respectively. For combinational treatment, serially dilute test compound examples at 1:2 in assay medium (as indicated above or RPMI-1640/20% heat-inactivated FBS and RPMI-1640/10% FBS for GDM-1 and EOL-1, respectively) in wells C2-C11 (0.1 μM) to H2-H11, then serially dilute test compound ABT-199 1:3 from C2-H2 (1.0 μM) to C11-H11. […] Incubate plates for 10-15 min at room temperature before reading. Measure luminescence using the PERKIN-ELMER® ENVISION® Multi-Label Reader. […]

GDM-1 cells = assay: Combination with BCL2 inhibitor ABT-199 in AML cell lines, 4-day cell proliferation assay; format: cell-based; conditions: GDM-1, treatment duration 4 Days; single agent or combination; read-out: Absolute IC50 (cell proliferation)
Protocol: as §1

Nc1ncnc2c1ccn2[C@@H]1O[C@H]([C@H](O)c2ccc(Cl)c(OC3CC3)c2)[C@@H](O)[C@H]1O [Example 4, (2R,3R,4S,5R)-2-(4-aminopyrrolo[2,3-d]pyrimidin-7-yl)-5-[(R)-[4-chloro-3-(cyclopropoxy)phenyl]-hydroxy-methyl]tetrahydrofuran-3,4-diol]
EC50 [1]: 1040 nM | IC50 (PRMT5/MEP50 complex): 5.2 nM | percent inhibition of tumor volume versus vehicle (Molt 4 cells): −75%

ABT-199 [reference compound]
IC50 (EOL-1 cells): 30 nM | IC50 (GDM-1 cells): 7 nM
